Laboratory results taken from patent US10766869B2, “Triazoles for the treatment of demyelinating dieases” (Vertex Pharmaceuticals Incorporated, priority 2015, dated 2020).
Read-outs that look alike come from different tables or passages of the source.

Test system: primary rat mixed cortical cells
Assay: In vitro myelination assay (MBP positive myelin strands, fold myelin pixels above background)
Type: cell-based
Settings: Rattus norvegicus; for fold induction at 1 µM: 1.0 μM compound; for fold induction at 10 µM: 10.0 μM compound
From the text: In Vitro Myelination Assay
Compounds were screened for their ability to induce myelination using a primary rat mixed cortical cell culture assay, which contains neurons, oligodendrocyte precursor cells, oligodendrocytes, astrocytes and microglia. The assay quantifies myelination by measuring myelin basic protein (MBP) immunofluorescent positive myelin strands from images taken using a Cellomics Array Scan (model Arrayscan VTI HCS Reader) or a Molecular Devices Image Xpress (model IXM XL) high content imager. The myelin strands were quantitated using a custom created myelin detection software program. Test compounds were dissolved in DMSO to make a 10 mM initial stock solution. Dilutions were made in myelination medium to obtain the final solutions for the assay and were tested in primary rat mixed cortical cells at selected doses.
Primary rat mixed cortical cells were prepared from harvested cerebral cortices from postnatal day 1 (P1) rats (P1 Rat CD® IGS pups) were purchased from Charles River) in Complete Dissociation Medium, wherein the meninges were removed and the cortical tissue chopped with a razor blade into ˜1 mm^3 pieces. Tissue from 1-3 pups was collected and placed into 15 ml conical tubes in a total volume of 5 ml of Complete Dissociation Medium. Activated papain (3 ml) was added to each 15 ml conical tube and tissue was incubated at 37° C. for 30 minutes. After the 30 minute incubation, DNase (Sigma D4527; 75 μl of a 1 mg/ml stock) was added to each tube, followed by mechanical trituration using a 2 ml serological pipette and autopipettor to gently dissociate the tissue. Following trituration, larger tissue pieces were allowed to settle by gravity, and the supernatant containing dissociated cells was transferred to a 50 ml conical tube with 4 ml of trypsin inhibitor. Cells were pelleted by centrifugation, resuspended in myelination medium and filtered through a 40 μm filter. Cells were then seeded in 96-well plates (BD Biosciences, Black, PDL-coated, Cat. No. 356640) at 87,500-95,000 cells/well in a final volume of 200 μl of Myelination Medium in the presence or absence of compound and cultured for 14 days in a humidified 37° C. incubator with 5% CO2. Half the medium was removed and replaced with fresh medium containing 1× compound on days 6 and 10. Using a Biotek automatic plate washer (model Biomek® FXP Laboratory Automation Workstation), cells were fixed with 4% paraformaldehyde on day 14, washed with PBS and blocked in 5% normal goat serum (Vector Laboratories, S-1000) in 0.1% PBS-TritonX-100 (PBST) for 1 hour. Cells were stained with 1:500 anti-MBP (Covance, cat # SMI99) primary antibody in 1% normal goat serum in 0.1% PBST for 2 hours at room temperature followed by 2 washes with PBST. A final incubation in secondary antibody (1:1000, Invitrogen, Alexa-488 anti-mouse IgG2b) and 1:10,000 Hoechst dye in 1% normal goat serum in 0.1% PBST was performed for 2 hours at room temperature. Plates were washed with PBS and then scanned on a Cellomics Array Scan using a 10× objective (25 images per well) or the Image Xpress using a 10× objective (9 image per well). Images were analyzed using Vertex myelin detection software (described below) to quantify total MBP myelin pixels per well. Fold myelin pixels above background at two concentrations (1.0 μM and 10.0 μM) relative to baseline of no added compound are reported below in Table 4. Standard deviation for each compound concentration was calculated using all replicates and using a standard deviation formula commonly used in the art.
One of skill in the art would recognize that for this type of primary neuronal mixed cell assay variability between different assay runs is to be expected even though the protocol is the same for each assay run. For instance, variability may be due to small differences in cell viability, cell density, age of the animals, etc.
Vertex Myelin Detection Software: […]

[1] = read-out: Fold myelin pixels above background relative to baseline of no added compound
[2] = relative to baseline of no added compound, read-out: Fold myelin pixels above background, 1.0 μM
[3] = relative to baseline of no added compound, read-out: Fold myelin pixels above background, 10.0 μM
[4] = relative to baseline of no added compound, read-out: Fold myelin pixels above background

Compound | fold induction at 1 µM [1] | fold induction at 10 µM [1] | fold induction at 1 µM [2] | fold induction at 10 µM [3] | fold induction at 10 µM [4] | also measured
CC1(N2CCN(c3cc(C(F)F)cc(Nc4ncn(-c5cccc(F)c5)n4)n3)CC2)COC1 [Compound 823, 4-(difluoromethyl)-N-[1-(3-fluorophenyl)-1,2,4-triazol-3-yl]-6-[4-(3-methyloxetan-3-yl)piperazin-1-yl]pyridin-2-amine] | 10 to 100 | 10 to 100 | – | – | – | –
Cc1cc(Nc2ncn(-c3ccccc3)n2)cc(O[C@H]2CCN(C3COC3)C2)c1 [Compound 239, N-[3-methyl-5-[(3S)-1-(oxetan-3-yl)pyrrolidin-3-yl]oxy-phenyl]-1-phenyl-1,2,4-triazol-3-amine] | – | – | 1000 to 10000 | ≤ 1 | – | –
CC(C)(C)N1CCN(c2cc(Nc3ncn(-c4cc(F)cc(F)c4)n3)cc(N3CCN(C(C)(C)C)CC3)c2)CC1 [Compound 573, N-[3,5-bis(4-tert-butylpiperazin-1-yl)phenyl]-1-(3,5-difluorophenyl)-1,2,4-triazol-3-amine] | – | – | – | – | 1 to 10 | fold induction at 1 µM [4]: 1 to 10
Cc1cc(Nc2ncn(-c3ccccc3)n2)cc(N2CCCC2)c1 [Compound 110, N-(3-methyl-5-pyrrolidin-1-yl-phenyl)-1-phenyl-1,2,4-triazol-3-amine] | – | – | 100 to 1000 | 1 to 10 | – | –
Cc1cc(Nc2ncn(-c3ccc(F)c(F)c3)n2)cc(O[C@H]2CCN(C3COC3)C2)c1 [Compound 52, 1-(3,4-difluorophenyl)-N-[3-methyl-5-[(3S)-1-(oxetan-3-yl)pyrrolidin-3-yl]oxy-phenyl]-1,2,4-triazol-3-amine] | – | – | 1000 to 10000 | ≤ 1 | – | –
Cc1cc(Nc2ncn(-c3cc(F)cc(F)c3)n2)cc(N2CCC(N3CCOC(C)C3)CC2)c1 (stereo not shown) [Compound 1023, 1-(3,5-difluorophenyl)-N-[3-methyl-5-[4-(2-methylmorpholin-4-yl)-1-piperidyl]phenyl]-1,2,4-triazol-3-amine] | 1 to 10 | 10 to 100 | – | – | – | –
Cc1cc(Nc2ncn(-c3ccccc3)n2)cc(Nc2ncco2)c1 [Compound 838, 5-methyl-N1-oxazol-2-yl-N3-(1-phenyl-1,2,4-triazol-3-yl)benzene-1,3-diamine] | ≤ 1 | ≤ 1 | – | – | – | –
CSc1nccc(-n2cnc(Nc3cc(C)cc(N4CCN(C5COC5)CC4)c3)n2)n1 [Compound 64, N-[3-methyl-5-[4-(oxetan-3-yl)piperazin-1-yl]phenyl]-1-(2-methylsulfanylpyrimidin-4-yl)-1,2,4-triazol-3-amine] | – | – | 10 to 100 | ≤ 1 | – | –
Cc1cc(Nc2ncn(-c3cc(F)cc(F)c3)n2)cc(N2CCCC2CN2CCOCC2)c1 (stereo not shown) [Compound 1012, 1-(3,5-difluorophenyl)-N-[3-methyl-5-[2-(morpholinomethyl)pyrrolidin-1-yl]phenyl]-1,2,4-triazol-3-amine] | 1 to 10 | ≤ 1 | – | – | – | –
Cc1cc(Nc2ncn(-c3ccnc(N4CCCCCC4)c3)n2)cc(N2CCN(C)CC2)c1 [Compound 495, 1-[2-(azepan-1-yl)-4-pyridyl]-N-[3-methyl-5-(4-methylpiperazin-1-yl)phenyl]-1,2,4-triazol-3-amine] | – | – | – | – | ≤ 1 | –
Clc1cc(Nc2ncn(-c3cnccn3)n2)cc(N2CC(N3CCOCC3)C2)c1 [Compound 753, N-[3-chloro-5-(3-morpholinoazetidin-1-yl)phenyl]-1-pyrazin-2-yl-1,2,4-triazol-3-amine] | – | – | – | – | 100 to 1000 | fold induction at 1 µM [4]: 10 to 100
Cc1cc(Nc2ncn(-c3ccc(F)cc3)n2)cc(C2COC2)c1 [Compound 409, 1-(4-fluorophenyl)-N-[3-methyl-5-(oxetan-3-yl)phenyl]-1,2,4-triazol-3-amine] | – | – | – | – | 100 to 1000 | fold induction at 1 µM [4]: 1000 to 10000
Cc1cc(Nc2ncn(-c3cc(F)cc(F)c3)n2)cc(N2CCCC(N3CCCC3=O)C2)c1 (stereo not shown) [Compound 114, 1-[1-[3-[[1-(3,5-difluorophenyl)-1,2,4-triazol-3-yl]amino]-5-methyl-phenyl]-3-piperidyl]pyrrolidin-2-one] | – | – | 10 to 100 | 10 to 100 | – | –
